# Source: patent publication US12215082B1 (priority 2023, dated 2025)
# System: multidrug-resistant (MDR) strains of Mycobacterium tuberculosis
# Assay: microbe, parasite or virus in culture
# Type: cell-based
# Conditions: 192 h, read-out: MIC MDR-TB
row,Compound,MIC
1,"O=C(C[n+]1ccc(/C=N/O)cc1)c1ccc(Br)cc1.[Br-] [Compound 3b, (E)-1-(2-(4-Bromophenyl)-2-oxoethyl)-4-((hydroxyimino)methyl)pyridin-1-ium bromide]",64 µg/mL
2,"O=C(C[n+]1ccc(/C=N/O)cc1)c1ccc(F)cc1.[Br-] [Compound 3c, (E)-1-(2-(4-Fluorophenyl)-2-oxoethyl)-4-((hydroxyimino)methyl)pyridin-1-ium bromide]",128 µg/mL
3,"O=C(C[n+]1ccc(/C=N/O)cc1)c1ccccc1[N+](=O)[O-].[Br-] [Compound 3e, (E)-4-((Hydroxyimino)methyl)-1-(2-(2-nitrophenyl)-2-oxoethyl)pyridin-1-ium bromide]",64 µg/mL
4,"N#Cc1ccc(C(=O)C[n+]2ccc(/C=N/O)cc2)cc1.[Br-] [Compound 3d, (E)-1-(2-(4-Cyanophenyl)-2-oxoethyl)-4-((hydroxyimino)methyl)pyridin-1-ium bromide]",128 µg/mL
5,"O=C(C[n+]1ccc(/C=N/O)cc1)c1ccccc1.[Br-] [Compound 3a, (E)-4-((Hydroxyimino)methyl)-1-(2-oxo-2-phenylethyl)pyridin-1-ium bromide]",64 µg/mL
